US4401660A, “Ester derivatives of 5-O-mycaminosyl tylonolide and method of using same” (Eli Lilly and Company, priority 1981, dated 1983)

Legend:
Assay type in all cases: cell-based
Set-up in all cases: unit not given here
[1] = system: Staphylococcus aureus X400; test: MIC, standard agar-dilution assay (Table II); details: Staphylococcus aureus X400, methicillin-resistant strain
Description: (§1) The MIC's in Table II were determined by standard agar-dilution assays. The MIC's in Table III were obtained using a conventional broth-dilution microtiter test.

[2] = system: Streptococcus pyogenes C203; test: MIC, standard agar-dilution assay (Table II)
Description: as §1

[3] = system: Staphylococcus epidermidis EPI2; test: MIC, standard agar-dilution assay (Table II)
Description: as §1

[4] = system: Streptococcus Group D X66; test: MIC, standard agar-dilution assay (Table II)
Description: as §1

[5] = system: Streptococcus pneumoniae Park I; test: MIC, standard agar-dilution assay (Table II)
Description: as §1

[6] = system: Staphylococcus aureus X1.1; test: MIC, standard agar-dilution assay (Table II)
Description: as §1

[7] = system: Staphylococcus aureus S13E; test: MIC, standard agar-dilution assay (Table II)
Description: as §1

[8] = system: Streptococcus Group D 9960; test: MIC, standard agar-dilution assay (Table II)
Description: as §1

[9] = system: Haemophilus influenzae R252; test: MIC, standard agar-dilution assay (Table II); details: Haemophilus influenzae R252, ampicillin-resistant strain
Description: as §1

[10] = system: Haemophilus influenzae Holt; test: MIC, standard agar-dilution assay (Table II); details: ampicillin-sensitive strain
Description: as §1

[11] = system: Staphylococcus epidermidis EPI1; test: MIC, standard agar-dilution assay (Table II)
Description: as §1

[12] = system: Staphylococcus aureus V41; test: MIC, standard agar-dilution assay (Table II); details: Staphylococcus aureus V41, penicillin-resistant strain
Description: as §1

[13] = system: Pasteurella haemolytica 41D; test: MIC, broth-dilution microtiter test (Table III)
Description: as §1

[14] = system: Pasteurella multocida 22A; test: MIC, broth-dilution microtiter test (Table III)
Description: as §1

[15] = system: Pasteurella multocida 40G; test: MIC, broth-dilution microtiter test (Table III)
Description: as §1

Streptococcus sp. 80 = test: MIC, broth-dilution microtiter test (Table III)
Description: as §1

[16] = system: Pasteurella haemolytica 23C; test: MIC, broth-dilution microtiter test (Table III)
Description: as §1

[17] = system: Pasteurella haemolytica 22C; test: MIC, broth-dilution microtiter test (Table III)
Description: as §1

[18] = system: Pasteurella multocida 60A; test: MIC, broth-dilution microtiter test (Table III); details: avian isolate
Description: as §1

Staphylococcus aureus = test: MIC, broth-dilution microtiter test (Table III)
Description: as §1

Mycoplasma synoviae = test: MIC, broth-dilution microtiter test (Table III)
Description: as §1

[19] = system: Pasteurella multocida 17E; test: MIC, broth-dilution microtiter test (Table III); details: bovine isolate
Description: as §1

[20] = system: Pasteurella multocida 68C; test: MIC, broth-dilution microtiter test (Table III)
Description: as §1

Mycoplasma hyorhinis = test: MIC, broth-dilution microtiter test (Table III)
Description: as §1

Mycoplasma gallisepticum = test: MIC, broth-dilution microtiter test (Table III)
Description: as §1

SMILES	minimal inhibitory concentration (MIC) [1]	minimal inhibitory concentration (MIC) [2]	minimal inhibitory concentration (MIC) [3]	minimal inhibitory concentration (MIC) [4]	minimal inhibitory concentration (MIC) [5]	minimal inhibitory concentration (MIC) [6]	minimal inhibitory concentration (MIC) [7]	minimal inhibitory concentration (MIC) [8]	minimal inhibitory concentration (MIC) [11]	minimal inhibitory concentration (MIC) [12]	minimal inhibitory concentration (MIC) [13]	minimal inhibitory concentration (MIC) [14]	minimal inhibitory concentration (MIC) [15]	minimal inhibitory concentration (MIC) (Streptococcus sp. 80)	minimal inhibitory concentration (MIC) [16]	minimal inhibitory concentration (MIC) [17]	minimal inhibitory concentration (MIC) [18]	minimal inhibitory concentration (MIC) (Staphylococcus aureus)	minimal inhibitory concentration (MIC) (Mycoplasma synoviae)	minimal inhibitory concentration (MIC) [19]	other results
CCC1OC(=O)CC(O)C(C)C(OC2OC(C)C(O)C(N(C)C)C2O)C(CC=O)CC(C)C(=O)C=CC(C)=CC1COC(=O)c1ccc2ccccc2c1 (centres unmarked) [Compound 59]	0.5	0.5	0.5	0.5	0.125	0.5	0.5	0.5	0.5	0.5	12.5	12.5	3.12	0.39	12.5	12.5	3.12	0.78	1.56	3.12	minimal inhibitory concentration (MIC) [9]: 2; minimal inhibitory concentration (MIC) [10]: 4; minimal inhibitory concentration (MIC) [20]: 3.12; minimal inhibitory concentration (MIC) (Mycoplasma hyorhinis): 6.25; minimal inhibitory concentration (MIC) (Mycoplasma gallisepticum): 0.39
CCC1OC(=O)CC(O)C(C)C(OC2OC(C)C(OC(C)=O)C(N(C)C)C2OC(C)=O)C(CC=O)CC(C)C(=O)C=CC(C)=CC1COC(=O)C(Cl)Cl (centres unmarked) [Compound 66, 2',4'-Di-O-acetyl-23-O-dichloroacetyl-OMT]	2	0.25	2	1	0.125	1	1	2	1	2	25	3.12	3.12	< 0.78	12.5	25	6.25	3.12	1.56	3.12	minimal inhibitory concentration (MIC) [9]: 1; minimal inhibitory concentration (MIC) [10]: 2; minimal inhibitory concentration (MIC) [20]: 3.12; minimal inhibitory concentration (MIC) (Mycoplasma hyorhinis): 6.25; minimal inhibitory concentration (MIC) (Mycoplasma gallisepticum): 1.56
CCC1OC(=O)CC(O)C(C)C(OC2OC(C)C(OC(=O)c3ccccc3)C(N(C)C)C2OC(=O)c2ccccc2)C(CC=O)CC(C)C(=O)C=CC(C)=CC1CO (centres unmarked) [Compound 5, 2',4'-Di-O-benzoyl-OMT]	64	2	4	8	0.5	8	32	8	8	32	> 50	> 50	50	3.12	> 50	> 50	50	6.25	12.5	50	minimal inhibitory concentration (MIC) [9]: 64; minimal inhibitory concentration (MIC) [10]: 64; minimal inhibitory concentration (MIC) [20]: 25; minimal inhibitory concentration (MIC) (Mycoplasma hyorhinis): 50; minimal inhibitory concentration (MIC) (Mycoplasma gallisepticum): 12.5
CCC1OC(=O)CC(O)C(C)C(OC2OC(C)C(O)C(N(C)C)C2O)C(CC=O)CC(C)C(=O)C=CC(C)=CC1COC(=O)CCCCc1ccccc1 (centres unmarked) [Compound 61]	0.25	0.25	0.25	0.25	0.06	0.25	0.25	0.25	0.25	0.25	6.25	6.25	6.25	1.56	12.5	12.5	3.12	1.56	1.56	6.25	minimal inhibitory concentration (MIC) [9]: 2; minimal inhibitory concentration (MIC) [10]: 2; minimal inhibitory concentration (MIC) [20]: 6.25; minimal inhibitory concentration (MIC) (Mycoplasma hyorhinis): 6.25; minimal inhibitory concentration (MIC) (Mycoplasma gallisepticum): 0.78
CCC1OC(=O)CC(O)C(C)C(OC2OC(C)C(O)C(N(C)C)C2OC(C)=O)C(CC=O)CC(C)C(=O)C=CC(C)=CC1COC(=O)C(Cl)(Cl)Cl (centres unmarked) [Compound 77]	2	0.25	2	1	0.25	1	1	1	1	2	12.5	50	25	0.78	12.5	12.5	3.12	1.56	0.78	3.12	minimal inhibitory concentration (MIC) [9]: 1; minimal inhibitory concentration (MIC) [20]: 25; minimal inhibitory concentration (MIC) (Mycoplasma hyorhinis): 3.12; minimal inhibitory concentration (MIC) (Mycoplasma gallisepticum): 0.78
CCC1OC(=O)CC(O)C(C)C(OC2OC(C)C(OC(=O)CC(C)C)C(N(C)C)C2OC(C)=O)C(CC=O)CC(C)C(=O)C=CC(C)=CC1COC(=O)CC(C)C (centres unmarked) [Compound 50, 2'-O-Acetyl-4',23-di-O-isovaleryl-OMT]	2	1	1	1	0.5	1	1	1	1	2	25	25	3.12	0.39	25	25	6.25	0.39	1.56	12.5	minimal inhibitory concentration (MIC) [20]: 6.25; minimal inhibitory concentration (MIC) (Mycoplasma hyorhinis): 6.25; minimal inhibitory concentration (MIC) (Mycoplasma gallisepticum): 0.195
CCC1OC(=O)CC(O)C(C)C(OC2OC(C)C(OC(=O)CC(C)C)C(N(C)C)C2OC(C)=O)C(CC=O)CC(C)C(=O)C=CC(C)=CC1COC(C)=O (centres unmarked) [Compound 51, 2',23-Di-O-Acetyl-4'-O-isovaleryl-OMT]	1	0.25	1	1	0.125	1	0.5	1	0.5	1	3.12	6.25	3.12	0.78	3.12	3.12	3.12	0.78	0.78	3.12	minimal inhibitory concentration (MIC) [20]: 3.12; minimal inhibitory concentration (MIC) (Mycoplasma hyorhinis): 6.25; minimal inhibitory concentration (MIC) (Mycoplasma gallisepticum): < 0.05
